Data reported in PubChem BioAssay (NCI).
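Protocol summary: plate cells (96-well), add compound at 5 concentrations, incubate 48 h, interpolate endpoints linearly. TGI is the concentration that stops growth completely.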

Experiments:
Experiment in all cases: growth of human tumour cells (NCI), 48 h
HCC-2998 colon = tested on: HCC-2998 colon
K-562 leukemia = tested on: K-562 leukemia
NCI-H226 lung = tested on: NCI-H226 lung
SK-MEL-2 melanoma = tested on: SK-MEL-2 melanoma
KM12 colon = tested on: KM12 colon
MOLT-4 leukemia = tested on: MOLT-4 leukemia
NCI-H522 lung = tested on: NCI-H522 lung
HCT-116 colon = tested on: HCT-116 colon
TK-10 renal = tested on: TK-10 renal
786-0 renal = tested on: 786-0 renal
OVCAR-8 ovarian = tested on: OVCAR-8 ovarian
UACC-62 melanoma = tested on: UACC-62 melanoma
SF-295 CNS = tested on: SF-295 CNS
ACHN renal = tested on: ACHN renal
SK-MEL-5 melanoma = tested on: SK-MEL-5 melanoma
SNB-75 CNS = tested on: SNB-75 CNS
CCRF-CEM leukemia = tested on: CCRF-CEM leukemia
HOP-62 NSCLC = tested on: HOP-62 NSCLC
SK-OV-3 ovarian = tested on: SK-OV-3 ovarian
NCI-H460 lung = tested on: NCI-H460 lung
SK-MEL-28 melanoma = tested on: SK-MEL-28 melanoma
RXF 393 renal = tested on: RXF 393 renal
PC-3 prostate = tested on: PC-3 prostate
COLO 205 colon = tested on: COLO 205 colon
SW-620 colon = tested on: SW-620 colon
UACC-257 melanoma = tested on: UACC-257 melanoma
HCT-15 colon = tested on: HCT-15 colon
MALME-3M melanoma = tested on: MALME-3M melanoma
MCF7 breast = tested on: MCF7 breast
NCI-H23 lung = tested on: NCI-H23 lung
A549 NSCLC = tested on: A549 NSCLC
SF-539 CNS = tested on: SF-539 CNS
MDA-MB-231 breast = tested on: MDA-MB-231 breast
SR leukemia = tested on: SR leukemia
IGROV1 ovarian = tested on: IGROV1 ovarian
LOX IMVI melanoma = tested on: LOX IMVI melanoma
OVCAR-5 ovarian = tested on: OVCAR-5 ovarian
OVCAR-3 ovarian = tested on: OVCAR-3 ovarian
MDA-MB-435 = tested on: MDA-MB-435
HT29 colon = tested on: HT29 colon
T-47D breast = tested on: T-47D breast
SNB-19 CNS = tested on: SNB-19 CNS
RPMI-8226 leukemia = tested on: RPMI-8226 leukemia
DU-145 prostate = tested on: DU-145 prostate
UO-31 renal = tested on: UO-31 renal
OVCAR-4 ovarian = tested on: OVCAR-4 ovarian
U251 CNS = tested on: U251 CNS
SN12C renal = tested on: SN12C renal
NCI/ADR-RES ovarian = tested on: NCI/ADR-RES ovarian
CAKI-1 renal = tested on: CAKI-1 renal
M14 melanoma = tested on: M14 melanoma
BT-549 breast = tested on: BT-549 breast
HS 578T breast = tested on: HS 578T breast
EKVX NSCLC = tested on: EKVX NSCLC
SF-268 CNS = tested on: SF-268 CNS

Compound `COc1ccc(S(=O)Cc2cc(OC)c(OC)c(OC)c2)cc1` (stereo not given) has a TGI (HCC-2998 colon) of over 100 µM, a TGI (K-562 leukemia) of over 100 µM and a TGI (NCI-H226 lung) of over 100 µM. For the same compound, the TGI (SK-MEL-2 melanoma) was over 100 µM, the TGI (KM12 colon) was over 100 µM and the TGI (MOLT-4 leukemia) was over 100 µM. For the same compound, the TGI (NCI-H522 lung) was over 100 µM, the TGI (HCT-116 colon) was over 100 µM and the TGI (TK-10 renal) was over 100 µM. For the same compound, the TGI (786-0 renal) was over 100 µM, the TGI (OVCAR-8 ovarian) was over 100 µM and the TGI (UACC-62 melanoma) was over 100 µM. The TGI (SF-295 CNS) was over 100 µM, the TGI (ACHN renal) was over 100 µM and the TGI (SK-MEL-5 melanoma) was over 100 µM. It also gave a TGI (SNB-75 CNS) of over 100 µM, a TGI (CCRF-CEM leukemia) of over 100 µM and a TGI (HOP-62 NSCLC) of over 100 µM. It also gave a TGI (SK-OV-3 ovarian) of over 100 µM, a TGI (NCI-H460 lung) of over 100 µM and a TGI (SK-MEL-28 melanoma) of over 100 µM. For the same compound, the TGI (RXF 393 renal) was over 100 µM, the TGI (PC-3 prostate) was over 100 µM and the TGI (COLO 205 colon) was over 100 µM. It also gave a TGI (SW-620 colon) of over 100 µM, a TGI (UACC-257 melanoma) of over 100 µM and a TGI (HCT-15 colon) of over 100 µM. The TGI (MALME-3M melanoma) was over 100 µM, the TGI (MCF7 breast) was over 100 µM and the TGI (NCI-H23 lung) was over 100 µM. For the same compound, the TGI (A549 NSCLC) was over 100 µM, the TGI (SF-539 CNS) was over 100 µM and the TGI (MDA-MB-231 breast) was over 100 µM. For the same compound, the TGI (SR leukemia) was over 100 µM, the TGI (IGROV1 ovarian) was over 100 µM and the TGI (LOX IMVI melanoma) was over 100 µM. For the same compound, the TGI (OVCAR-5 ovarian) was over 100 µM, the TGI (OVCAR-3 ovarian) was over 100 µM and the TGI (MDA-MB-435) was 35.7 µM. For the same compound, the TGI (HT29 colon) was over 100 µM, the TGI (T-47D breast) was over 100 µM and the TGI (SNB-19 CNS) was over 100 µM. For the same compound, the TGI (RPMI-8226 leukemia) was over 100 µM, the TGI (DU-145 prostate) was over 100 µM and the TGI (UO-31 renal) was over 100 µM. The TGI (OVCAR-4 ovarian) was over 100 µM, the TGI (U251 CNS) was over 100 µM and the TGI (SN12C renal) was over 100 µM. For the same compound, the TGI (NCI/ADR-RES ovarian) was over 100 µM, the TGI (CAKI-1 renal) was over 100 µM and the TGI (M14 melanoma) was over 100 µM. The TGI (BT-549 breast) was over 100 µM, the TGI (HS 578T breast) was over 100 µM and the TGI (EKVX NSCLC) was over 100 µM. The TGI (SF-268 CNS) was over 100 µM.
